Results published in the supplement of paper PMC10307832.

How the values were obtained:
Assay in all cases: relative viability (nuclei count vs DMSO), 5 days (fraction); higher = more cells survive
NCI-H1944 = test system: NCI-H1944
How it was run: (§1)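 Relative viability was taken as the ratio of nuclei in treated wells to nuclei in vehicle wells. Lung cancer cell lines in 1536-well plates received compounds by pin tool one day after seeding, either one drug alone or a fixed anchor-drug dose plus five library-drug doses (not always all listed) in √10 steps. Nuclei were counted on 4× images after 5 days of treatment, and values are medians of duplicate plates.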

LCLC-97TM1 = test system: LCLC-97TM1
How it was run: as §1

NCI-H1793 = test system: NCI-H1793
How it was run: as §1

UMC-11 = test system: UMC-11
How it was run: as §1

HCC-366 = test system: HCC-366
How it was run: as §1

EPLC-272H = test system: EPLC-272H
How it was run: as §1

COR-L 105 = test system: COR-L 105
How it was run: as §1

NCI-H1915 = test system: NCI-H1915
How it was run: as §1

NCI-H1755 = test system: NCI-H1755
How it was run: as §1

LC-2-ad = test system: LC-2-ad
How it was run: as §1

NCI-H2085 = test system: NCI-H2085
How it was run: as §1

NCI-H460 = test system: NCI-H460
How it was run: as §1

HCC-78 = test system: HCC-78
How it was run: as §1

HOP-62 = test system: HOP-62
How it was run: as §1

NCI-H2170 = test system: NCI-H2170
How it was run: as §1

NCI-H358 = test system: NCI-H358
How it was run: as §1

LXF-289 = test system: LXF-289
How it was run: as §1

LU99A = test system: LU99A
How it was run: as §1

SK-LU-1 = test system: SK-LU-1
How it was run: as §1

A-427 = test system: A-427
How it was run: as §1

NCI-H1792 = test system: NCI-H1792
How it was run: as §1

NCI-H1975 = test system: NCI-H1975
How it was run: as §1

O=C(O)c1ccc(-c2c[nH]c3ncc(-c4ccccc4)cc23)cc1C1CCCC1 + CS(=O)(=O)N1CCN(Cc2cc3nc(-c4cccc5[nH]ncc45)nc(N4CCOCC4)c3s2)CC1 [Pictilisib] (partner 1 µM)
relative viability (NCI-H1944; first compound 0.04 µM): 0.359 | relative viability (NCI-H1944; first compound 0.1265 µM): 0.338 | relative viability (NCI-H1944; first compound 0.4 µM): 0.309 | relative viability (NCI-H1944; first compound 1.265 µM): 0.35 | relative viability (LCLC-97TM1; first compound 0.04 µM): 0.228 | relative viability (LCLC-97TM1; first compound 0.1265 µM): 0.183 | relative viability (LCLC-97TM1; first compound 0.4 µM): 0.192 | relative viability (LCLC-97TM1; first compound 1.265 µM): 0.17 | relative viability (NCI-H1793; first compound 0.04 µM): 0.387 | relative viability (NCI-H1793; first compound 0.1265 µM): 0.43 | relative viability (NCI-H1793; first compound 0.4 µM): 0.308 | relative viability (NCI-H1793; first compound 1.265 µM): 0.336 | relative viability (UMC-11; first compound 0.04 µM): 0.827 | relative viability (UMC-11; first compound 0.1265 µM): 0.937 | relative viability (UMC-11; first compound 0.4 µM): 0.853 | relative viability (UMC-11; first compound 1.265 µM): 0.775 | relative viability (HCC-366; first compound 0.04 µM): 0.136 | relative viability (HCC-366; first compound 0.1265 µM): 0.192 | relative viability (HCC-366; first compound 0.4 µM): 0.138 | relative viability (HCC-366; first compound 1.265 µM): 0.153 | relative viability (EPLC-272H; first compound 0.04 µM): 0.381 | relative viability (EPLC-272H; first compound 0.1265 µM): 0.318 | relative viability (EPLC-272H; first compound 0.4 µM): 0.266 | relative viability (EPLC-272H; first compound 1.265 µM): 0.342 | relative viability (COR-L 105; first compound 0.04 µM): 0.435 | relative viability (COR-L 105; first compound 0.1265 µM): 0.429 | relative viability (COR-L 105; first compound 0.4 µM): 0.497 | relative viability (COR-L 105; first compound 1.265 µM): 0.388 | relative viability (NCI-H1915; first compound 0.04 µM): 0.992 | relative viability (NCI-H1915; first compound 0.1265 µM): 0.876 | relative viability (NCI-H1915; first compound 0.4 µM): 0.94 | relative viability (NCI-H1915; first compound 1.265 µM): 0.803 | relative viability (NCI-H1755; first compound 0.04 µM): 0.381 | relative viability (NCI-H1755; first compound 0.1265 µM): 0.603 | relative viability (NCI-H1755; first compound 0.4 µM): 0.45 | relative viability (NCI-H1755; first compound 1.265 µM): 0.442 | relative viability (LC-2-ad; first compound 0.04 µM): 0.48 | relative viability (LC-2-ad; first compound 0.1265 µM): 0.46 | relative viability (LC-2-ad; first compound 0.4 µM): 0.462 | relative viability (LC-2-ad; first compound 1.265 µM): 0.351 | relative viability (NCI-H2085; first compound 0.04 µM): 0.431 | relative viability (NCI-H2085; first compound 0.1265 µM): 0.427 | relative viability (NCI-H2085; first compound 0.4 µM): 0.536 | relative viability (NCI-H2085; first compound 1.265 µM): 0.568 | relative viability (NCI-H460; first compound 0.04 µM): 0.409 | relative viability (NCI-H460; first compound 0.1265 µM): 0.574 | relative viability (NCI-H460; first compound 0.4 µM): 0.38 | relative viability (NCI-H460; first compound 1.265 µM): 0.365 | relative viability (HCC-78; first compound 0.04 µM): 0.231 | relative viability (HCC-78; first compound 0.1265 µM): 0.263 | relative viability (HCC-78; first compound 0.4 µM): 0.179 | relative viability (HCC-78; first compound 1.265 µM): 0.168 | relative viability (HOP-62; first compound 0.04 µM): 1.05 | relative viability (HOP-62; first compound 0.1265 µM): 0.884 | relative viability (HOP-62; first compound 0.4 µM): 0.686 | relative viability (HOP-62; first compound 1.265 µM): 0.66 | relative viability (NCI-H2170; first compound 0.04 µM): 0.386 | relative viability (NCI-H2170; first compound 0.1265 µM): 0.326 | relative viability (NCI-H2170; first compound 0.4 µM): 0.294 | relative viability (NCI-H2170; first compound 1.265 µM): 0.211 | relative viability (NCI-H358; first compound 0.04 µM): 0.39 | relative viability (NCI-H358; first compound 0.1265 µM): 0.364 | relative viability (NCI-H358; first compound 0.4 µM): 0.371 | relative viability (NCI-H358; first compound 1.265 µM): 0.255 | relative viability (LXF-289; first compound 0.04 µM): 0.762 | relative viability (LXF-289; first compound 0.1265 µM): 0.869 | relative viability (LXF-289; first compound 0.4 µM): 0.645 | relative viability (LXF-289; first compound 1.265 µM): 0.404 | relative viability (LU99A; first compound 0.04 µM): 0.321 | relative viability (LU99A; first compound 0.1265 µM): 0.315 | relative viability (LU99A; first compound 0.4 µM): 0.308 | relative viability (LU99A; first compound 1.265 µM): 0.278 | relative viability (SK-LU-1; first compound 0.04 µM): 0.559 | relative viability (SK-LU-1; first compound 0.1265 µM): 0.604 | relative viability (SK-LU-1; first compound 0.4 µM): 0.538 | relative viability (SK-LU-1; first compound 1.265 µM): 0.418 | relative viability (A-427; first compound 0.04 µM): 0.836 | relative viability (A-427; first compound 0.1265 µM): 0.738 | relative viability (A-427; first compound 0.4 µM): 0.723 | relative viability (A-427; first compound 1.265 µM): 0.738 | relative viability (NCI-H1792; first compound 0.04 µM): 0.287 | relative viability (NCI-H1792; first compound 0.1265 µM): 0.311 | relative viability (NCI-H1792; first compound 0.4 µM): 0.329 | relative viability (NCI-H1792; first compound 1.265 µM): 0.27 | relative viability (NCI-H1975; first compound 0.04 µM): 0.256 | relative viability (NCI-H1975; first compound 0.1265 µM): 0.297 | relative viability (NCI-H1975; first compound 0.4 µM): 0.309 | relative viability (NCI-H1975; first compound 1.265 µM): 0.271
